From the supplement of paper PMC10307832

Tests used:
Assay in all cases: relative viability (nuclei count vs DMSO), 5 days (fraction); higher = more cells survive
AZD5582 + OSI-027 = compound: C[C@@H](C(=O)N[C@@H](C1CCCCC1)C(=O)N2CCC[C@H]2C(=O)N[C@@H]3[C@@H](CC4=CC=CC=C34)OCC#CC#CCO[C@@H]5CC6=CC=CC=C6[C@@H]5NC(=O)[C@@H]7CCCN7C(=O)[C@H](C8CCCCC8)NC(=O)[C@H](C)NC)NC [AZD5582] + COc1cccc2cc(-c3nc([C@H]4CC[C@H](C(=O)O)CC4)n4ncnc(N)c34)[nH]c12 [OSI-027] (partner 0.5 µM)
Summary of the method: (§1)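 Dosing by pin tool came one day after lung cancer cell lines were seeded in 1536-well plates, using either one drug or a fixed anchor-drug dose plus five library-drug doses (not always all listed) in √10 steps. After 5 days, nuclei were counted on 4× images. Relative viability is treated-well nuclei count divided by vehicle-well nuclei count, and values are medians of duplicate plates.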

AZD5582 + Tozasertib = compound: C[C@@H](C(=O)N[C@@H](C1CCCCC1)C(=O)N2CCC[C@H]2C(=O)N[C@@H]3[C@@H](CC4=CC=CC=C34)OCC#CC#CCO[C@@H]5CC6=CC=CC=C6[C@@H]5NC(=O)[C@@H]7CCCN7C(=O)[C@H](C8CCCCC8)NC(=O)[C@H](C)NC)NC [AZD5582] + Cc1cc(Nc2cc(N3CCN(C)CC3)nc(Sc3ccc(NC(=O)C4CC4)cc3)n2)n[nH]1 [Tozasertib] (partner 0.1 µM)
Summary of the method: as §1

AZD5582 + AZD7762 = compound: C[C@@H](C(=O)N[C@@H](C1CCCCC1)C(=O)N2CCC[C@H]2C(=O)N[C@@H]3[C@@H](CC4=CC=CC=C34)OCC#CC#CCO[C@@H]5CC6=CC=CC=C6[C@@H]5NC(=O)[C@@H]7CCCN7C(=O)[C@H](C8CCCCC8)NC(=O)[C@H](C)NC)NC [AZD5582] + NC(=O)Nc1cc(-c2cccc(F)c2)sc1C(=O)N[C@H]1CCCNC1 [AZD7762] (partner 0.2 µM)
Summary of the method: as §1

Temozolomide + Alpelisib = compound: Cn1nnc2c(C(N)=O)ncn2c1=O [Temozolomide] + Cc1nc(NC(=O)N2CCC[C@H]2C(N)=O)sc1-c1ccnc(C(C)(C)C(F)(F)F)c1 [Alpelisib] (partner 2 µM)
Summary of the method: as §1

Cell Line	relative viability (AZD5582 + OSI-027; first compound 0.001581 µM)	relative viability (AZD5582 + OSI-027; first compound 0.005 µM)	relative viability (AZD5582 + OSI-027; first compound 0.01581 µM)	relative viability (AZD5582 + OSI-027; first compound 0.05 µM)	relative viability (AZD5582 + Tozasertib; first compound 0.001581 µM)	relative viability (AZD5582 + Tozasertib; first compound 0.005 µM)	relative viability (AZD5582 + Tozasertib; first compound 0.01581 µM)	relative viability (AZD5582 + Tozasertib; first compound 0.05 µM)	relative viability (AZD5582 + AZD7762; first compound 0.001581 µM)	relative viability (AZD5582 + AZD7762; first compound 0.005 µM)	relative viability (AZD5582 + AZD7762; first compound 0.01581 µM)	relative viability (AZD5582 + AZD7762; first compound 0.05 µM)	relative viability (Temozolomide + Alpelisib; first compound 0.2 µM)	relative viability (Temozolomide + Alpelisib; first compound 0.6325 µM)	relative viability (Temozolomide + Alpelisib; first compound 2 µM)	relative viability (Temozolomide + Alpelisib; first compound 6.325 µM)	relative viability (Temozolomide + Alpelisib; first compound 20 µM)
CAL-12T	0.239	0.339	0.281	0.323	0.219	0.226	0.282	0.228	0.423	0.468	0.485	0.405	1.11	1.22	1.14	1.06	1.18
HCC-44	0.42	0.39	0.251	0.255	0.482	0.642	0.798	0.324	0.9	1.01	1.05	1.03	0.811	0.842	0.868	0.786	0.717
A-427	0.341	0.44	0.414	0.31	0.201	0.198	0.221	0.167	0.682	0.703	0.748	0.637	1.05	1.06	1.05	0.878	0.547
NCI-H1666	0.65	0.696	0.808	0.874	0.539	0.682	0.638	0.678	0.774	0.85	0.737	0.746	0.925	0.951	0.808	0.586	0.499
HCC-78	0.382	0.406	0.33	0.311	1.42	0.515	0.428	0.529	0.691	0.601	0.468	0.417	0.232	0.343	0.348	0.356	0.284
HCC-366	0.654	0.995		0.934	0.0633	0.134		0.155	0.132	0.285	0.33	0.41	0.337	0.391	0.456	0.462	0.358
EPLC-272H	0.121		0.274	0.0867	0.15		0.292	0.076	0.0994		0.204	0.0859	0.727	1.08	0.947	0.849	0.664
NCI-H1755	0.567	0.673	0.58	0.659	0.523	0.652	0.599	0.587	0.438	0.472	0.291	0.494	0.972	0.952	0.853	0.881	0.59
SK-MES-1	0.599	0.602	0.566	0.591	0.771	0.785	0.888	0.805					1.06	0.919	1.06	0.836	0.778
NCI-H838	0.339	0.423		0.449	0.265	0.307		0.292	0.87	0.903	0.81	1.01	1.1	1.06	1.1	0.968	1.02
NCI-H2170	0.653	0.759	0.683	0.866	0.647	0.716	0.746	0.829	0.813	0.884	0.88	1.04		0.796	0.849	0.607	0.4
HCC-827	0.618	0.84	0.761	0.855	0.398	0.489	0.436	0.396	0.192	0.139	0.211	0.186	0.995	0.978	1.02	0.995	0.136
NCI-H1793	0.2	0.301	0.212	0.185	0.241	0.486	0.303	0.454	0.254	0.795	0.277	0.487		0.714	0.881	0.716	0.585
NCI-H441	0.536	0.582		0.651	0.581	0.653		0.587	0.942	0.895	1.02	0.867	0.881	0.804	0.901	0.743	0.566
H3255	0.627	0.582	0.514	0.544	0.553	0.609	0.676	0.509	0.805	0.779	0.842	0.773		0.686	0.599	0.755	0.146
ABC-1	0.491	0.608	0.375	0.488	0.157	0.169	0.196	0.166	0.59	1.13	0.72	0.572	1.19	1.17	1.15	1.1	0.829
